Results: patent US9862690B2, “Treatment of pulmonary and other conditions” (University of Pittsburgh—of the Commonwealth System of …, priority 2013, dated 2018)

How the values were obtained:
[1] = TRAP assay (quenching of ABTS+ radical cation); type: biochemical; conditions: 10 μmol compound, 5 min, absorbance 734 nm; Troxol reference
Method: The anti-oxidant activities of PB 141 were determined by the ability of this compound to react with pre-formed radical monocation of 2,2′-azinobis-(3-ethylbenzothiazoline)-6-sulfonic acid (ABTS^+). Data are representative of one of two independent experiments; n=3; *** P<0.001 versus Troxol.
The anti-oxidant activity of PB141 or PB157 was determined by the ability of these compounds to react with the pre-formed radical monocation of 2,2′-azinobis-(3-ethylbenzothiazoline)-6-sulfonic acid (ABTS^+). ABTS (1.8 mmol) was reacted overnight with potassium persulfate (0.63 mmol) in double distilled water, at room temperature in the dark, to generate the dark blue ABTS^+ radical cation. This radical cation has a maximum absorption at 734 nm. Immediately prior to the experiment, ABTS^+ was diluted with absolute ethanol to an absorbance of approximately 0.7 at 734 nm. PB141 or PB157 (10 μmol) was added to ABTS^+ (1 ml) and mixed by vortexing. The reaction was allowed to stabilize for 5 min and the absorbance was measured. The anti-oxidant activities of these compounds were determined by their ability to quench the color of the radical cation. Troxol (10 μmol) was used as reference standard.

[2] = tested on: mice (lung, kidney, liver and other organs); assay: Toxicity of long-term, high-dose nebulized delivery; type: in vivo; conditions: 25 mg/kg or 250 mg/kg aerosolized daily up to 30 days
Method: PB141 was delivered to mice by nebulization at doses of 25 or 250 mg/kg for up to 30 days. (A) Lungs were excised, sectioned, and examined histologically for evidence of inflammation or injury. (B) Potential kidney and liver injury were assessed by serum levels of creatinine, AST, and ALT. […] Acute lung injury was induced in mice by intratracheal administration of LPS. Thirty min later PBS or varying concentrations of PB141 were delivered into cage air by nebulization. Following sacrifice, nuclear proteins were isolated from lungs and used to determine DNA-binding activity of the p65 subunit of the pro-inflammatory transcription factor NF-κB.
PB141 (25 mg/kg or 250 mg/kg) was aerosolized to mice daily for up to 30 consecutive days. The standard dose used in efficacy studies is 25 mg/kg for 1-10 days. At the conclusion of each experiment blood was collected and the lungs were excised and examined histopathologically for evidence of injury or toxicity. Serum levels of creatinine and aspartate (AST) and alanine (ALT) aminotransferases were measured using enzyme-linked immunosorbent assay (ELISA) kits (R&D Systems, Minneapolis, Minn.) according to the manufacturer's instructions. At the end of 30 days' exposure, other organs were also excised and similarly examined (data not shown).

[3] = tested on: BEAS-2B cells; type: cell-based
Method: To evaluate cell viability, apoptosis, and cytotoxicity, the Apo Tox-Glo Triplex assay was used according to the manufacturer's instructions (Promega, Madison, Wis.). Briefly, the BEAS-2B cells were plated at 2×10^4 cells/well in 100 μl medium in an opaque walled, clear-bottomed, 96-well plate. After 24 hr culture, they were treated for a further indicated time with different concentrations of PB141 or PB157. At the end of the culture period, 20 μl viability/cytotoxicity reagent was added to each well, mixed by orbital shaking (300 r.p.m. for 30 s) and incubated for 30 min at 37° C. Fluorescence was then measured with excitation at 400 nm and emission at 505 nm to assess cell viability, and 485 nm excitation and 520 nm emission to assess cytotoxicity; both were quantified as relative fluorescence units (RFU). Then, 100 μl Caspase-Glo 3/7 reagent was added to each well, mixed by orbital shaking (300 r.p.m. for 30 s) and incubated for 30 min at room temperature. Luminescence was measured to assess caspase activation as a marker of apoptosis and quantified as relative luminescence units. Results for PB141 and PB157 were similar.

[4] = tested on: human lung fibroblasts (IMR-90; fibroblasts of normal or UIP patients); assay: TGF-β-treated lung fibroblast proliferation and myofibroblast differentiation; type: cell-based; conditions: pretreatment 0.1 to 1 μM, then TGF-β 24 h
Method: IMR-90 cells were cultured in Dulbecco's modified Eagle's medium (DMEM) containing 10% heat-inactivated fetal bovine serum, penicillin, and streptomycin (100 IU/ml). Monolayer cultures were deprived of serum for 24 h, and treated with different concentrations of PB141 for different time periods as indicated. Cell numbers were then counted at 24, 48, and 72 h. Data are representative of one of two independent experiments; n=3.
IMR-90 cells were cultured in Dulbecco's modified Eagle's medium (DMEM) containing 10% heat-inactivated fetal bovine serum, penicillin, and streptomycin (100 IU/ml). Monolayer cultures were deprived of serum for 24 h, pre-treated with 0.5 μM PB141 or with vehicle (saline) for 1 h, and then exposed to 2 ng/ml TGF-β for 24 h. (A) Western blot analysis for α-smooth muscle actin. (B) Quantitative values for each condition. ***P<0.001 vs Veh. (C) Immunofluorescence microscopy for α-SMA following treatment. Blots and images are representative of two independent experiments.
Additional in vitro experiments were performed using normal human fetal lung fibroblasts (IMR-90; Institute for Medical Research, Camden, N.J.) or fibroblasts grown from mechanically dissociated surgical lung biopsy of histologically normal or usual interstitial pneumonia (UIP) patients. […]

For `CC(=O)N[C@@H](CSC(CC(=O)CC(SC[C@H](NC(C)=O)C(=O)O)c1cnccn1)c1cnccn1)C(=O)O` (stereo partly drawn) [PB141], the “Anti-oxidant activity (ability to quench ABTS+ radical cation)” value [1] was “clearly demonstrated”, the “Injury or toxicity (lung histopathology, serum creatinine, AST, ALT, other organs)” value [2] was “No evidence of injury or toxicity” and the Cytotoxicity [3] was “without exhibiting cytotoxicity”. The “Apoptosis (caspase 3/7 activation)” value ([3]; different concentrations, data not shown) was “induced apoptosis”, the “Proliferation of human lung fibroblasts” value [4] was “inhibited” and the “Differentiation to myofibroblasts (α-SMA)” value ([4]; including UIP patient fibroblasts) was “inhibited”.
